Test results from patent US7994127B2, “Treatment of rett syndrome” (Massachusetts Institute of Technology, priority 2007, dated 2011).

What was measured:
[1] = in vivo; cited from earlier work
[2] = system: visual cortex of adult MeCP2+/− mice; experiment: Ocular dominance plasticity after monocular deprivation, optical imaging of intrinsic signals; type: in vivo, mouse; conditions: 180 μg/kg/day i.p. starting at 2 weeks; P60 MeCP2 KO mice
synaptic transmission = experiment: Synaptic transmission during direct application of the molecules; type: cell-based, mouse; conditions: direct application of the molecule
Source text: rhIGF1 produced a similar improvement as (1-3)IGF-1 in all maturational signatures measured, including (A) synaptic transmission levels, and (B) circuit stability (by preventing ocular dominance plasticity) in P60 MeCP2 KO mice.
The above data focused on the (1-3)IGF-1 fragment of IGF1 to promote IGF1 signaling. We also have tested the effect of the full-length IGF1 peptide already approved for pediatric administration in human patients (for short stature indications). We have verified a correspondence in the effects of (1-3)IGF-1 and recombinant human IGF1 (rhIGF1).

rat hippocampal cultures = conditions: Ramsey et al., 2005; Xing et al., 2007; cited from earlier work

rhIGF1: full-length IGF1 peptide already approved for pediatric administration in human patients; recombinant human IGF1
crossing the blood-brain barrier [1]: capable of crossing the blood-brain barrier
maturation of cortical circuitry during ocular dominance plasticity (FIG. 9B) [2]: promoted to similar degrees
synaptic activity / synaptic transmission levels (FIG. 9A) (synaptic transmission): striking enhancements of synaptic activity
excitatory postsynaptic currents (rat hippocampal cultures): elevate excitatory postsynaptic currents significantly

B1: BDNF: brain derived neurotrophic factor (protein, UniProt P23560 19-247, looked up)
Neurotrophic factor BDNF …: APMKEANIRGQGGLAYPGVRTHGTLESVNGPKAGSRGLTSLADTFEHVIEELLDEDQKVRPNEENNKDADLYTSRVMLSSQVPLEPPLLFLLEEYKNYLDAANMSMRVRRHSDPARRGELSVCDSISEWVTAADKKTAVDMSGGTVTVLEKVPVSKGQLKQYFYETKCNPMGYTKEGCRGIDKRHWNSQCRTTQSYVRALTMDSKKRIGWRFIRIDTSCVCTLTIKRGR
crossing the blood-brain barrier [1]: poor efficiency at crossing the blood brain barrier
